This passage reports IC50 results from patent EP1806348A2, “Pyrido (2,3-D)Pyrimidines as inhibitors of cellular proliferation” (Warner-Lambert Company LLC, priority 1997, dated 1998).

Type in all cases: biochemical
Assay [1] concerns the target T1, mouse PDGF-β receptor tyrosine kinase (Mus musculus, UniProt P05622).
T1 construct: amplify a fragment of DNA that codes for the intracellular tyrosine kinase domain; made in house; host or cells: SF9 insect cells (baculovirus)
In words: PDGF receptor tyrosine kinase assay. Conditions: Table 3. An excerpt:
(§1) Full-length cDNAs for the mouse PDGF-β and human FGF-1 (flg) receptor tyrosine kinases were obtained from J. Escobedo and prepared as described in J. Biol. Chem., 1991;262:1482-1487. PCR primers were designed to amplify a fragment of DNA that codes for the intracellular tyrosine kinase domain. The fragment was inserted into a baculovirus vector, cotransfected with AcMNPV DNA, and the recombinant virus isolated. SF9 insect cells were infected with the virus to overexpress the protein, and the cell lysate was used for the assay. Assays were performed in 96-well plates (100 µL/incubation/well), and conditions were optimized to measure the incorporation of ^32P from γ^32P-ATP into a glutamate-tyrosine co-polymer substrate. Briefly, to each well was added 82.5 µL of incubation buffer containing 25 mM Hepes (pH 7.0), 150 mM NaCl, 0.1% Triton X-100, 0.2 mM PMSF, 0.2 mM Na3VO4, 10 mM MnCl2, and 750 µg/mL of Poly (4:1) glutamate-tyrosine followed by […] of inhibitor and 5 µL of enzyme lysate (7.5 µg/µL FGF-TK or 6.0 µg/µL PDGF-TK) to initiate the reaction. Following a 10 minute incubation at 25°C, […] of γ^32P-ATP (0.4 µCi plus 50 µM ATP) was added to each well, and samples were incubated for an additional 10 minutes at 25°C. The reaction was terminated by the addition of 100 µL of 30% trichloroacetic acid (TCA) containing 20 mM sodium pyrophosphate and precipitation of material onto glass fiber mats (Wallac). Filters were washed three times with 15% TCA containing 100 mM sodium pyrophosphate, and the radioactivity retained on the filters counted in a Wallac 1250 Betaplate reader. Nonspecific activity was defined as radioactivity retained on the filters following incubation of samples with buffer alone (no enzyme). Specific enzymatic activity (enzyme plus buffer) was defined as total activity minus nonspecific activity. […]

Assay [2] addresses T2, human FGF-1 (flg) receptor tyrosine kinase (Homo sapiens, UniProt P11362).
T2 construct: amplify a fragment of DNA that codes for the intracellular tyrosine kinase domain; made in house; host or cells: SF9 insect cells (baculovirus)
Nature of the assay: FGF receptor tyrosine kinase assay. To be noted: Table 3.
Excerpt: as §1

A further assay deals with cdk2/cyclinA (Homo sapiens, UniProt P24941). In words: Cyclin-dependent kinase assay (cdk2/cyclinA). To be noted: Table 1. As for the experimental part:
(§2) All components except the ATP were added to the wells, and the plate was placed on a plate mixer for 2 minutes. […] The reaction was terminated by addition of 0.1 mL of 20% TCA. The plate was kept at 4°C for at least 1 hour to allow the substrate to precipitate. The wells were then washed five times with 0.2 mL of 10% TCA and ^32P incorporation determined with a beta plate counter (Wallac Inc., Gaithersburg, MD).

A further assay deals with cdc2/cyclinB (Homo sapiens, UniProt P06493). In words: Cyclin-dependent kinase assay (cdc2/cyclinB). To be noted: Table 1; read-out: cdk1/B IC50. How it is done:
as §2

For a further assay, the target named is cdk2/cyclinE (Homo sapiens, UniProt P24941). Nature of the assay: Cyclin-dependent kinase assay (cdk2/cyclinE). Conditions: Table 1; read-out: cdk2/E IC50. As for the experimental part: as §2
The target of another assay is cdk4/D (Homo sapiens, UniProt P11802). In words: Cyclin-dependent kinase 4 (cdk4) enzyme assay, 32P incorporation into retinoblastoma. To be noted: Table 1; 25 µM ATP, retinoblastoma substrate. How it is done: A typical assay, for instance, measures inhibitory activity against the cyclin D dependent kinase 4 enzyme (cdk4/D). […] The cdk 4 assay was carried out as follows.
All components except the ATP were added to the wells, and the plate was placed on a plate mixer for 2 minutes. […] The reaction was terminated by addition of 0.1 mL of 20% trichloroacetic acid (TCA). The plate was kept at 4°C for at least 1 hour to allow the substrate to precipitate. The wells were then washed five times with 0.2 mL of 10% TCA and ^32P incorporation was determined with a beta plate counter (Wallac Inc., Gaithersburg, MD).

The target in another assay is c-Src (Homo sapiens, UniProt P12931). Nature of the assay: c-Src protein kinase assay. Conditions: Table 5. How it is done: C-Src kinase was purified from baculovirus infected insect cell lysates using an antipeptide monoclonal antibody directed against the N-terminal amino acids (amino acids 2-17) of c-Src. The antibody, covalently linked to 0.65 µm latex beads, was added to a suspension of insect cell lysis buffer comprised of 150 mM NaCl, 50 mM Tris pH 7.5, 1 mM DTT, 1% NP-40,2 mM EGTA, 1 mM sodium vanadate, 1 mM PMSF, 1 µg/mL each of leupeptin, pepstatin, and aprotinin. Insect cell lysate containing c-Src protein was incubated with these beads for 3 to 4 hours at 4°C with rotation. At the end of the lysate incubation, the beads were rinsed three times in lysis buffer, resuspended in lysis buffer containing 10% glycerol, and frozen. These latex beads were thawed, rinsed three times in assay buffer (40 mM Tris, pH 7.5, […]) and suspended in the same buffer. In a Millipore 96-well plate with a 0.65 µm polyvinylidine membrane bottom were added the reaction components: 10 µL c-Src beads, 10 µL of 2.5 mg/mL poly GluTyr substrate, 5 µM ATP containing 0.2 µCi labeled ^32P-ATP, 5 µL DMSO containing inhibitors or as a solvent control, and buffer to make the final volume 125 µL. The reaction was started at room temperature by addition of the ATP and quenched 10 minutes later by the addition of 125 µL of 30% TCA, 0.1 M sodium pyrophosphate for 5 minutes on ice. […] The filters were then punched, counted in a liquid scintillation counter, and the data examined for inhibitory activity in comparison to a known inhibitor such as erbstatin. […]
Sequence of c-Src (P12931 whole entry, the tested form may be a part): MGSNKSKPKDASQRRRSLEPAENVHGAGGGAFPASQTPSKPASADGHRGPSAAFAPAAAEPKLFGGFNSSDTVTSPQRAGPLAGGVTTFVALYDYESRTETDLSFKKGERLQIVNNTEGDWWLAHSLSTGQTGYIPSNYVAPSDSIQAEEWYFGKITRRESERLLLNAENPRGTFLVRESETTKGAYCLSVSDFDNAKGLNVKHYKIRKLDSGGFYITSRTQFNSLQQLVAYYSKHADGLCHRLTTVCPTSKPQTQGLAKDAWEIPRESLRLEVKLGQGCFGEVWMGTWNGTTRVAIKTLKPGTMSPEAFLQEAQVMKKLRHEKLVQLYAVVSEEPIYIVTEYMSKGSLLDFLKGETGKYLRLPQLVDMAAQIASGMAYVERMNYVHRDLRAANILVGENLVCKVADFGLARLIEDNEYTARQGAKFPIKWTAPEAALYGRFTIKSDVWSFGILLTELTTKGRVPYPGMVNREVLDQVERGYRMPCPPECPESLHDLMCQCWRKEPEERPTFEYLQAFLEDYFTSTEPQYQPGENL

T1 sequence (P05622 599-961 limits assumed): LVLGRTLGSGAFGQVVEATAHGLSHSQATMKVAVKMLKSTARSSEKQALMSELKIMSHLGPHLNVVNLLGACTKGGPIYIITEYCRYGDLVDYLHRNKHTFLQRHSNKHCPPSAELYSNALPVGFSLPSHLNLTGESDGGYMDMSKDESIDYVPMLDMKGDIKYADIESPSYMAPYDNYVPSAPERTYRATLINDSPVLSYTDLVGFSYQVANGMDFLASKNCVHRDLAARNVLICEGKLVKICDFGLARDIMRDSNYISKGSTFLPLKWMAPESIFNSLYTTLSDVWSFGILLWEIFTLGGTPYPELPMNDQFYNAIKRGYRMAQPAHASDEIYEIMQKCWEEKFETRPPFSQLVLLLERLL
Sequence of cdk4/D (P11802 whole entry): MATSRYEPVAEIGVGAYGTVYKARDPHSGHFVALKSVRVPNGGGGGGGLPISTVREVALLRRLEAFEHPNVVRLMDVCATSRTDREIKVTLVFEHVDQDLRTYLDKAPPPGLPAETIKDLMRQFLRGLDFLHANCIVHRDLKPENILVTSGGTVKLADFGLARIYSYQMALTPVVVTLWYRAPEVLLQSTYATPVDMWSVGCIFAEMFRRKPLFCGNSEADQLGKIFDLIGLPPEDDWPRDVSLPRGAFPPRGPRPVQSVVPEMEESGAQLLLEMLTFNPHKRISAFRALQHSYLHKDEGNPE
Sequence of cdk4/D (P24385 whole entry, further chain): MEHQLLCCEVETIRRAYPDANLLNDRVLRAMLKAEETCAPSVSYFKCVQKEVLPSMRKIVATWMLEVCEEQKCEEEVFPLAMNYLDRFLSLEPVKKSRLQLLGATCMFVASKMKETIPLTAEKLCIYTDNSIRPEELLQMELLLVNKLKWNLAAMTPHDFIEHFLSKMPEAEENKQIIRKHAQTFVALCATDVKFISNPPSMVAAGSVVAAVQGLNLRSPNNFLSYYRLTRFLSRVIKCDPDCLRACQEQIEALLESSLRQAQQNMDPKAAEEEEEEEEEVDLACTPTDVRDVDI
Sequence of cdc2/cyclinB (P06493 whole entry): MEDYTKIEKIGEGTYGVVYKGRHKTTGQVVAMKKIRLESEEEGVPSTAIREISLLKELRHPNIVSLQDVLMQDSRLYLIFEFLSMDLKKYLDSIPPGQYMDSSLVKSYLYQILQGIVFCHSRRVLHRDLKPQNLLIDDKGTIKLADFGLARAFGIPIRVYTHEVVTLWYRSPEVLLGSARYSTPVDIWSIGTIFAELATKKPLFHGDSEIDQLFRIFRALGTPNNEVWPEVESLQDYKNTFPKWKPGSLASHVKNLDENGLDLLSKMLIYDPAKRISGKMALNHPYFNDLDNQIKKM
Sequence of cdc2/cyclinB (P14635 whole entry, further chain): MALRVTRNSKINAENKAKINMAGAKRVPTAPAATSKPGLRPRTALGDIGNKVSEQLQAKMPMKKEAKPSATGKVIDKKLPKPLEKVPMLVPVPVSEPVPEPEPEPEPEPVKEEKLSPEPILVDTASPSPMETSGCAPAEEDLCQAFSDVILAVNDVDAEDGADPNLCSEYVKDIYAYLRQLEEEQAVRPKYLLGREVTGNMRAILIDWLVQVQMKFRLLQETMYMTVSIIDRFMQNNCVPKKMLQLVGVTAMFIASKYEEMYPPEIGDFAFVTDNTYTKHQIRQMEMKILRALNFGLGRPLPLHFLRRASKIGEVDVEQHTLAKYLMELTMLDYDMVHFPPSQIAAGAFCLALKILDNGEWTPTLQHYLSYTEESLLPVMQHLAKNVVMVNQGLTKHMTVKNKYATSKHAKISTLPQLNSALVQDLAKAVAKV
T2 sequence (P11362 478-767 limits assumed): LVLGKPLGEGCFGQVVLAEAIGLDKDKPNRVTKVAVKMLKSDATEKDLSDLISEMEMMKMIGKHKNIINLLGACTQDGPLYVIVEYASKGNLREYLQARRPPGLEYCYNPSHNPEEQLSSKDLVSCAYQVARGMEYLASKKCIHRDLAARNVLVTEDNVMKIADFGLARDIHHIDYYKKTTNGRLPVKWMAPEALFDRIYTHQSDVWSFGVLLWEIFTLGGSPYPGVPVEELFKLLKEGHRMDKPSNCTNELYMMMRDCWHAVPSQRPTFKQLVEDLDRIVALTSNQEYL

As to `CCN(CC)CCOc1ccc(Nc2ncc3ccc(=O)n(C4CCCCC4)c3n2)cc1C` [Example 150, 8-Cyclohexyl-2-[4-(2-diethylamino-ethoxy)-3-methyl-phenylamino]-8H-pyrido[2,3-d]pyrimidin-7-one], the IC50 in assay [1] and in assay [2] was 0.099 µM throughout.

Consider `O=c1ccc2cnc(Nc3ccccc3)nc2n1C1CC2CCC1C2` (centres unmarked) [Example 180, 8-Bicyclo[2.2.1]hept-2-yl-2-phenylamino-8H-pyrido[2,3-d]pyrimidin-7-one], for which the IC50 is 0.075 µM on cdk2/cyclinA; 27.8 µM in assay [1]; 12 µM in assay [2]; 0.503 µM at cdc2/cyclinB; 0.173 µM at cdk2/cyclinE; 0.038 µM against cdk4/D.

With `CCCn1c(=O)ccc2cnc(Nc3ccccc3)nc21` [Example 41, 2-Phenylamino-8-propyl-8H-pyrido[2,3-d]pyrimidin-7-one], the IC50 against cdk2/cyclinA is 0.05 µM; in assay [1], 4.96 µM; in assay [2] it was 6.6 µM; on cdc2/cyclinB, 0.299 µM; on cdk2/cyclinE it was 0.112 µM; against cdk4/D, 0.55 µM.

At c-Src, `O=c1ccc2cnc(Nc3ccc(N4CCC(O)CC4)cc3)nc2n1C1CCCC1` [Example 198, 8-Cyclopentyl-2-[4-(4-hydroxy-piperidin-1-yl)-phenylamino]-8H-pyrido[2,3-d]pyrimidin-7-one] returned an IC50 of 1.1 µM.

With `CCN(CC)CCOc1ccc(Nc2ncc3ccc(=O)n(CC)c3n2)cc1` [Example 52, 2-[4-(2-Diethylaminoethoxy)-phenylamino]-8-ethyl-8H-pyrido[2,3-d]pyrimidin-7-one], the IC50 against c-Src stood at 1.03 µM; at cdk2/cyclinA it was 0.75 µM; on cdc2/cyclinB it was 2.66 µM; on cdk2/cyclinE it was 2.34 µM; on cdk4/D it was 0.16 µM.

Take `CCn1c(=O)ccc2cnc(Nc3ccncc3)nc21` [Example 50, 8-Ethyl-2-(pyridin-4-ylamino)-8H-pyrido[2,3-d]pyrimidin-7-one]: the figures for the IC50 against c-Src and against cdk4/D were 15 µM and 2 µM, respectively.

At c-Src, `CN1CCN(c2ccc(Nc3ncc4ccc(=O)n(CCCOCc5ccccc5)c4n3)cc2)CC1` [Example 115, 8-(3-Benzyloxy-propyl)-2-[4-(4-methyl-piperazin-1-yl)-phenylamino]-8H-pyrido[2,3-d]pyrimidin-7-one] yielded an IC50 of 0.545 µM.

Consider `CC1CC(C)CN(c2ccc(Nc3ncc4ccc(=O)n(C5CCCCC5)c4n3)cc2)C1` (centres unmarked) [Example 167, 8-Cyclohexyl-2-[4-(3,5-dimethyl-piperidin-1-yl)-phenylamino]-8H-pyrido[2,3-d]pyrimidin-7-one], for which the results for the IC50 in assay [1] and in assay [2] were 33.1 µM and 20.6 µM, respectively.

With `O=c1ccc2cnc(Nc3ccccc3)nc2n1C1CCCC1` [Example 108, 8-Cyclopentyl-2-phenylamino-8H-pyrido[2,3-d]pyrimidin-7-one], the IC50 at cdk2/cyclinA is 0.012 µM; in assay [1] it was 4.18 µM; in assay [2], 2.98 µM; at cdc2/cyclinB, 0.19 µM; at cdk2/cyclinE, 0.11 µM; at cdk4/D it was 0.21 µM.

Regarding `O=c1ccc2cnc(Nc3ccc(-n4cccn4)cc3)nc2n1C1CCCCC1` [Example 162, 8-Cyclohexyl-2-(4-pyrazol-1-yl-phenylamino)-8H-pyrido[2,3-d]pyrimidin-7-one], the IC50 in assay [1] was 17.1 µM; in assay [2], 19.7 µM.

Regarding `CCn1c(=O)ccc2cnc(Nc3ccccc3)nc21` [Example 18, 8-Ethyl-2-phenylamino-8H-pyrido[2,3-d]pyrimidin-7-one], the IC50 is 0.129 µM on cdk2/cyclinA; 1.78 µM in assay [1]; 3.3 µM in assay [2]; 1.02 µM on cdc2/cyclinB; 0.41 µM on cdk2/cyclinE; 0.752 µM at cdk4/D.

`CC(C)Cn1c(=O)ccc2cnc(Nc3ccccc3)nc21` [Example 42, 8-Isobutyl-2-phenylamino-8H-pyrido[2,3-d]pyrimidin-7-one]: the IC50 in assay [1] was 3.69 µM; in assay [2], 4.06 µM; at cdk4/D it was 0.4 µM.

With `O=c1ccc2cnc(Nc3ccccc3)nc2n1-c1ccccc1` [Example 101, 2-Phenylamino-8-phenyl-8H-pyrido[2,3-d]pyrimidin-7-one], the IC50 is 21.2 µM on c-Src and 1.7 µM on cdk4/D.

Consider `O=c1ccc2cnc(Nc3ccccc3)nc2n1C1CCCCC1` [Example 131, 8-Cyclohexyl-2-phenylamino-8H-pyrido[2,3-d]pyrimidin-7-one], for which the IC50 on cdk2/cyclinA was determined as 0.079 µM; in assay [1], 16.1 µM; in assay [2], 12.4 µM; on cdc2/cyclinB, 0.749 µM; at cdk2/cyclinE, 0.125 µM; on cdk4/D it was 0.047 µM.

`CCC(CC)n1c(=O)ccc2cnc(Nc3ccc(N4CCN(C)CC4)cc3)nc21` [Example 77, 8-(1-Ethylpropyl)-2-[4-(4-methylpiperazin-1-yl)-phenylamino]-8H-pyrido[2,3-d]pyrimidin-7-one]: the IC50 is 0.028 µM on cdk2/cyclinA, 0.141 µM at cdc2/cyclinB, 0.068 µM at cdk2/cyclinE and 0.014 µM against cdk4/D.

Take `Cn1c(=O)ccc2cnc(Nc3ccccc3)nc21` [Example 61, 8-Methyl-2-phenylamino-8H-pyrido[2,3-d]pyrimidin-7-one]: the IC50 at cdk2/cyclinA came to 0.49 µM; at cdc2/cyclinB it was 1.76 µM; on cdk2/cyclinE, 0.86 µM; on cdk4/D, 6.9 µM.

Turning to `CCn1c(=O)ccc2cnc(Nc3ccc(N4CCN(C)CC4)cc3)nc21` [Example 53, 8-Ethyl-2-[4-(4-methylpiperazin-1-yl)-phenylamino]-8H-pyrido[2,3-d]pyrimidin-7-one], the IC50 against cdk2/cyclinA was 0.339 µM; at cdc2/cyclinB, 1.88 µM; on cdk2/cyclinE, 1.19 µM; on cdk4/D, 0.085 µM.

On to `CCn1c(=O)ccc2cnc(Nc3ccc(N(C)C)cc3)nc21` [Example 93, 2-(4-Dimethylamino-phenylamino)-8-ethyl-8H-pyrido[2,3-d]pyrimidin-7-one], for which the IC50 on cdk2/cyclinA stood at 0.28 µM; at cdc2/cyclinB, 0.78 µM; on cdk2/cyclinE, 1.77 µM; at cdk4/D, 0.38 µM.

For the compound `O=c1ccc2cnc(Nc3ccc(N4CCC(CCO)CC4)cc3)nc2n1C1CCCC1` [Example 196, 8-Cyclopentyl-2-{4-[4-(2-hydroxy-ethyl)-piperidin-1-yl]-phenylamino}-8H-pyrido[2,3-d]pyrimidin-7-one], the IC50 was determined as 1.06 µM in assay [1] and 1.45 µM in assay [2].
